{"source": "patent US8470845B2", "about": "“Analgesic and methods of treating pain” (Toray Industries, Inc., priority 2004, dated 2013)", "key": {"male ddY mouse [1]": {"test_system": "male ddY mouse", "assay": "Analgesic activity test by mouse acetic acid writhing method", "assay_type": "in vivo", "conditions": "subcutaneous, 15 minutes before i.p. 0.6% acetic acid; dosage to halve the number of writhing response", "protocol": "To each male ddY mouse, each test compound or the vehicle was subcutaneously administered in an administration volume of 0.1 mL/10 g body weight. Fifteen minutes later, 0.1 mL/10 g body weight of aqueous 0.6% (v/v) acetic acid solution was intraperitoneally administered. From 10 minutes after the administration of the acetic acid solution, the number of writhing response (i.e., the behavior to bend the body backward and/or twist the body) during 10 minutes was counted, and the analgesic activity was evaluated based on the number of writhing response. […] 10% Aqueous dimethylsulfoxide (DMSO) was used as a vehicle for test compounds 1, 2, 3, 4, 5, 6, 7, 8, 9, 10, 11, 12, 13, 14, 15, 16, 17, 18, 19, 20, 21 and 22. 0.1% Citric acid/aqueous 5% xylitol was used as a vehicle for test compounds 10f."}, "[2]": {"test_system": "female Sprague-Dayley rats", "assay": "Activity to relieve cystalgia caused by hyperextension of bladder, myoelectric activity of external oblique abdominal muscle as index", "assay_type": "in vivo, rat", "conditions": "iv; for Rate of Inhibition of Myoelectric Activity (Number of Spikes) of External Oblique Abdominal Muscle (vs. before administration, %): anesthetized rats, mean ± standard error", "protocol": "The activity of Compound 10f to relieve cystalgia was evaluated using the myoelectric activity of external oblique abdominal muscle in hyperextension of bladder of anesthetized rats as an index of the cystalgia. In the experiments, 14 to 15-week old female Sprague-Dayley rats (CLEA Japan, Inc.) weighing 300 to 360 g were used.\nUnder halothane (2.5-4%) anesthesia, a polyethylene catheter (PE-50) for cystometry was inserted into the bladder transurethrally. Further, a polyethylene catheter (PE-100) for filling physiological saline was inserted into the bladder from the apex of bladder dome. […] A catheter for drug administration was indwelled in the femoral vein. The skin in the lateral ventral part was incised and a bipolar electrode for electromyographic measurement was inserted into the external oblique abdominal muscle and indwelled therein. A reservoir preliminarily filled with physiological saline was connected to the catheter indwelled in the bladder and held at a prescribed height to extend the bladder. The extension stimulus was continued for 20 seconds. In cases where the stimulation is repeatedly given, the interval between stimulation was 3 minutes. A bipolar electrode (needle electrode for electroencephalography, NIHON KOHDEN) was connected to an electromyograph amplifier (EMG100C, Biopac Systems), and a high cut filter (5 kHz) and low cut filter (100 Hz) were applied. Thereafter, the signals were taken into an AD converter (MP-150WSW, Biopac Systems) and into a computer at 1 kHz, and the myoelectric activity was recorded using the special software (AcqKnowledge 3.8.1, Biopac Systems). The intravesical pressure was measured using a pressure transducer (AP641G, NIHON KOHDEN) and a general purpose amplifier (DA100C, Biopac Systems). The halothane level was adjusted such that a stable myoelectric activity was obtained by extension at a pressure of 50 cmH2O, and then the drug was intravenously administered. Thereafter, hyperextension of bladder was repeated for at least 20 minutes.\nThe drug was dissolved in aqueous 5% xylitol-0.02% citric acid solution, and the administration volume was 0.5 mL/kg. The mean of the number of spikes during the twice hyperextension of bladder immediately before the drug administration was defined as the value before drug administration. Taking the value before the drug administration as 100%, the change in the number of spikes after administration of the drug was normalized. The mean of the change in the number of spikes by the consecutive three times hyperextension carried out immediately before or after 15-minutes time point from the drug administration was calculated, and the drug effect was analyzed by Williams test."}, "male ddY mouse [3]": {"test_system": "male ddY mouse", "conditions": "literature, Pain. Vol 50, 223-229 (1992); cited from earlier work"}}, "data": [{"smiles": "O=C1c2ccccc2C(=O)N1[C@@H]1CC[C@@]2(O)[C@H]3Cc4ccc(O)c5c4[C@@]2(CCN3CC2CC2)[C@H]1O5", "note": "[Compound 10f, N-(17-cyclopropylmethyl-4,5α-epoxy-3,14-dihydroxy-morphinan-6β-yl)-phthalimide]", "values": [{"measurement": "ED50", "setting": "male ddY mouse [1]", "value": 0.037, "unit": "mg/kg"}, {"measurement": "Rate of Inhibition of Myoelectric Activity (Number of Spikes) of External Oblique Abdominal Muscle (vs. before administration, %)", "setting": "[2]; 0.003 mg/kg", "value": "5.9 ± 11.5", "unit": "%"}, {"measurement": "Rate of Inhibition of Myoelectric Activity (Number of Spikes) of External Oblique Abdominal Muscle (vs. before administration, %)", "setting": "[2]; 0.01 mg/kg", "value": "42.4 ± 21.1", "unit": "%"}, {"measurement": "Rate of Inhibition of Myoelectric Activity (Number of Spikes) of External Oblique Abdominal Muscle (vs. before administration, %)", "setting": "[2]; 0.03 mg/kg", "value": "64.3 ± 17.2", "unit": "%"}, {"measurement": "inhibition of the myoelectric activity (in words)", "setting": "[2]; 0.003-0.03 mg/kg", "value": "dose-dependently and significantly inhibited"}, {"measurement": "minimum effective dose", "setting": "[2]; inhibition of myoelectric activity", "value": 0.01, "unit": "mg/kg"}]}, {"smiles": "CN1CC[C@]23c4c5ccc(O)c4O[C@H]2[C@@H](O)C=C[C@H]3[C@H]1C5", "note": "[morphine]", "values": [{"measurement": "effect on pain in PGF2α-induced allodynia model (in words)", "setting": "male ddY mouse [3]", "value": "ineffective"}]}]}
